Some results are limits rather than exact numbers.

For experiment [1], the system named is TGF-β-stimulated SMAD3 phosphorylation in BEAS-2B cells. Put plainly: Cellular ALK5 potency assay, inhibition of TGF-β stimulated pSMAD3 formation in BEAS-2B cells. The settings on record: Homo sapiens, pSMAD3, TGF-β 10 ng/mL, read-out: BEAS2B pIC50 (converted). In kind it is cell-based. In a few lines: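 Human lung epithelial BEAS-2B cells were pre-treated with compound for 1 h at 37 °C, then stimulated with TGF-β (final 10 ng/mL) for 30 min before lysis. pSMAD3 was quantified by AlphaLISA and pIC50 derived from dose-dependent signal change versus TGF-β-stimulated untreated cells.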

Experiment [2] addresses T1, recombinant human ALK5 (TGF-βR1) protein (Homo sapiens, UniProt P36897).
T1 construct: purchased Life Technologies PR9075A
T1 sequence (P36897 34-503): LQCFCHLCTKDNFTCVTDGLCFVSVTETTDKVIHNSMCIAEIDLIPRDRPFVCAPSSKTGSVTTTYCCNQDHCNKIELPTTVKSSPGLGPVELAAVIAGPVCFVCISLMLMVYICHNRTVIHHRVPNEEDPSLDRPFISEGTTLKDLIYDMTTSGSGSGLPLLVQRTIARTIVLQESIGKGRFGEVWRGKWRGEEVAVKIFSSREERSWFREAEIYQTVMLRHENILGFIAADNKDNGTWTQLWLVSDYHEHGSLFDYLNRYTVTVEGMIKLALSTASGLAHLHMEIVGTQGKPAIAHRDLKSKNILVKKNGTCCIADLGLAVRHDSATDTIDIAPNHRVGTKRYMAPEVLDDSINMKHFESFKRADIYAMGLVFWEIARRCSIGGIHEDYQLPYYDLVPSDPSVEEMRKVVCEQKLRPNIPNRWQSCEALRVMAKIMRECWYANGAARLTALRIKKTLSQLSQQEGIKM
Put plainly: Biochemical ALK5 (TGF-βR1) assay to measure pKi (LANCE Ultra ULight kinase assay). The conditions noted are these: apparent pKi, converted from pIC50 by Cheng-Prusoff. The essentials: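 Dose-response series of each compound were preincubated with the kinase for 60 minutes at room temperature. Phosphorylation proceeded for 60 minutes at 37 °C after ATP addition, was quenched with EDTA, and was detected with a europium anti-phospho-Thr1342 antibody by TR-FRET; pKi was calculated from pIC50.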
(In TR-FRET formats the signal depends on donor and acceptor labels being close together.)

For `Cc1cccc(-c2nccc(Nc3ccnc(Nc4ccc(NC(=O)N5CCN(C)CC5)cc4)n3)n2)n1` [Compound 330, 4-methyl-N-[4-[[4-[[2-(6-methyl-2-pyridyl)pyrimidin-4-yl]amino]pyrimidin-2-yl]amino]phenyl]piperazine-1-carboxamide], the IC50 in experiment [1] was 25.1 to 158 nM. Besides, the Ki in experiment [2] was 0.0398 to 0.316 nM.

Turning to `Cc1cccc(-c2nccc(Nc3ccnc(Nc4cnn(CCCN)c4)n3)n2)n1` [Compound 286, N2-[1-(3-aminopropyl)pyrazol-4-yl]-N4-[2-(6-methyl-2-pyridyl)pyrimidin-4-yl]pyrimidine-2,4-diamine], the IC50 in experiment [1] was 200 to 1260 nM. In addition, the Ki in experiment [2] is 0.0398 to 0.316 nM.

`COc1ccc(Nc2nccc(Nc3ccnc(-c4cccc(C)n4)n3)n2)cc1NC(=O)C1CCNCC1` [Compound 6, N-[2-methoxy-5-[[4-[[2-(6-methyl-2-pyridyl)pyrimidin-4-yl]amino]pyrimidin-2-yl]amino]phenyl]piperidine-4-carboxamide]: in experiment [1], the IC50 was 25.1 to 158 nM. Moreover, the Ki in experiment [2] is 0.0398 to 0.316 nM.

For `Cc1cccc(-c2nccc(Nc3ccnc(Nc4ccc(C(=O)O)cc4)n3)n2)n1` [Compound 406, 4-[[4-[[2-(6-methyl-2-pyridyl)pyrimidin-4-yl]amino]pyrimidin-2-yl]amino]benzoic acid], in experiment [1], the IC50 is 200 to 1260 nM. Further, the Ki in experiment [2] was 0.398 to 3.16 nM.

For the compound `Cc1cccc(-c2nccc(Nc3ccnc(Nc4ccc(NS(=O)(=O)N(C)C)cc4)n3)n2)n1` [Compound 371, 4-[[2-[4-(dimethylsulfamoylamino)anilino]pyrimidin-4-yl]amino]-2-(6-methyl-2-pyridyl)pyrimidine], the IC50 in experiment [1] is 25.1 to 158 nM. Further, in experiment [2], the Ki is 0.398 to 3.16 nM.

Take `Cc1cccc(-c2nccc(Nc3ccnc(Nc4ccc(CN5[C@@H](C)CNC[C@@H]5C)cc4)n3)n2)n1` [Compound 409, N2-[4-[[(2S,6S)-2,6-dimethylpiperazin-1-yl]methyl]phenyl]-N4-[2-(6-methyl-2-pyridyl)pyrimidin-4-yl]pyrimidine-2,4-diamine]: in experiment [1], the IC50 is 25.1 to 158 nM. In addition, the Ki in experiment [2] is 0.0398 to 0.316 nM.

On to `COC(=O)C1CCCN(c2ccc(Nc3nccc(Nc4ccnc(-c5cccc(C)n5)n4)n3)cc2)C1` (stereo not shown) [Compound 83, methyl 1-[4-[[4-[[2-(6-methyl-2-pyridyl)pyrimidin-4-yl]amino]pyrimidin-2-yl]amino]phenyl]piperidine-3-carboxylate], for which, in experiment [1], the IC50 was 25.1 to 158 nM. The Ki in experiment [2] was 0.0398 to 0.316 nM.

With `Cc1cccc(-c2nccc(Nc3ccnc(Nc4ccc(NC(=O)C5CCCNC5)cc4)n3)n2)n1` (stereo not shown) [Compound 10, N-[4-[[4-[[2-(6-methyl-2-pyridyl)pyrimidin-4-yl]amino]pyrimidin-2-yl]amino]phenyl]piperidine-3-carboxamide], in experiment [1], the IC50 is ≤ 20 nM. In addition, in experiment [2], the Ki is 0.0398 to 0.316 nM.

With `Cc1cccc(-c2nccc(Nc3ccnc(Nc4csc(C(=O)OCCN5CCNCC5)c4)n3)n2)n1` [Compound 554, 2-piperazin-1-ylethyl 4-[[4-[[2-(6-methyl-2-pyridyl)pyrimidin-4-yl]amino]pyrimidin-2-yl]amino]thiophene-2-carboxylate], the IC50 in experiment [1] is 25.1 to 158 nM. The Ki in experiment [2] was 0.0398 to 0.316 nM.

In the case of `CNC1CCN(c2ccc(Nc3nccc(Nc4ccnc(-c5cc(Cl)ccc5F)n4)n3)cc2)CC1` [Compound 137, N4-[2-(5-chloro-2-fluoro-phenyl)pyrimidin-4-yl]-N2-[4-[4-(methylamino)-1-piperidyl]phenyl]pyrimidine-2,4-diamine], the IC50 in experiment [1] was 25.1 to 158 nM. The Ki in experiment [2] is 0.0398 to 0.316 nM.

Regarding `Cc1cccc(-c2nccc(Nc3ccnc(Nc4nc(C(=O)NCC5CNC5)cs4)n3)n2)n1` [Compound 42, N-(azetidin-3-ylmethyl)-2-[[4-[[2-(6-methyl-2-pyridyl)pyrimidin-4-yl]amino]pyrimidin-2-yl]amino]thiazole-4-carboxamide], the IC50 in experiment [1] is 25.1 to 158 nM. Also, the Ki in experiment [2] is ≤ 0.0316 nM.

These data come from patent US20230399312A1, “SUBSTITUTED PYRIMIDINES AND METHODS OF USE” (THERAVANCE BIOPHARMA R&D IP, LLC, priority 2020, published 2023).
